Measured values reported in ChEMBL document CHEMBL2086297, “Reduced pulmonary surfactant interaction of daptomycin analogs via tryptophan replacement with alternative amino acids” (2012).
≈ marks a conversion by molar mass, not a printed value.

How the values were obtained:
Assay type in all cases: functional
[1] = test system: Staphylococcus aureus; assay: Antibacterial activity against methicillin-susceptible Staphylococcus aureus ATCC 29213 grown on calcium supplemented Mueller-Hinton broth by broth microdilution method
[2] = test system: Staphylococcus aureus; assay: Antibacterial activity against methicillin-susceptible Staphylococcus aureus ATCC 29213 by broth microdilution method in presence of 1% pulmonary surfactant; conditions: ATCC 29213, Pulmonary surfactant
[3] = test system: Staphylococcus aureus; assay: Antibacterial activity against methicillin-susceptible Staphylococcus aureus ATCC 29213 by broth microdilution method in presence of 5% pulmonary surfactant; conditions: ATCC 29213, Pulmonary surfactant
[4] = test system: Staphylococcus aureus; assay: Antibacterial activity against methicillin-susceptible Staphylococcus aureus ATCC 29213 by broth microdilution method in presence of 4% human serum albumin

Row | Structure (SMILES) | MIC [1] | MIC [2] | MIC [3] | MIC [4]
1 | CCCCCCCCCC(=O)N[C@@H](Cc1ccsc1)C(=O)N[C@@H](CC(N)=O)C(=O)N[C@@H](CC(=O)O)C(=O)N[C@@H]1C(=O)NCC(=O)N[C@@H](CCCN)C(=O)N[C@@H](CC(=O)O)C(=O)N[C@H](C)C(=O)N[C@@H](CC(=O)O)C(=O)NCC(=O)N[C@H](CO)C(=O)N[C@@H]([C@@H](C)CC(=O)O)C(=O)N[C@@H](CC(=O)c2ccccc2N)C(=O)O[C@@H]1C | 4 µg/mL (≈ 2.52 µM) | 8 µg/mL | 16 µg/mL | 32 µg/mL
2 | CCCCCCCCCC(=O)N[C@@H](Cc1ccc(OCC)cc1)C(=O)N[C@@H](CC(N)=O)C(=O)N[C@@H](CC(=O)O)C(=O)N[C@@H]1C(=O)NCC(=O)N[C@@H](CCCN)C(=O)N[C@@H](CC(=O)O)C(=O)N[C@H](C)C(=O)N[C@@H](CC(=O)O)C(=O)NCC(=O)N[C@H](CO)C(=O)N[C@@H]([C@@H](C)CC(=O)O)C(=O)N[C@@H](CC(=O)c2ccccc2N)C(=O)O[C@@H]1C | 4 µg/mL (≈ 2.46 µM) | 4 µg/mL | 16 µg/mL | 8 µg/mL
3 | CCCCCCCCCC(=O)N[C@@H](Cc1ccc(C(=O)O)cc1)C(=O)N[C@@H](CC(N)=O)C(=O)N[C@@H](CC(=O)O)C(=O)N[C@@H]1C(=O)NCC(=O)N[C@@H](CCCN)C(=O)N[C@@H](CC(=O)O)C(=O)N[C@H](C)C(=O)N[C@@H](CC(=O)O)C(=O)NCC(=O)N[C@H](CO)C(=O)N[C@@H]([C@@H](C)CC(=O)O)C(=O)N[C@@H](CC(=O)c2ccccc2N)C(=O)O[C@@H]1C | > 32 µg/mL | > 32 µg/mL | > 32 µg/mL | > 32 µg/mL
4 | CCCCCCCCCC(=O)N[C@@H](Cc1ccc(OC)cc1)C(=O)N[C@@H](CC(N)=O)C(=O)N[C@@H](CC(=O)O)C(=O)N[C@@H]1C(=O)NCC(=O)N[C@@H](CCCN)C(=O)N[C@@H](CC(=O)O)C(=O)N[C@H](C)C(=O)N[C@@H](CC(=O)O)C(=O)NCC(=O)N[C@H](CO)C(=O)N[C@@H]([C@@H](C)CC(=O)O)C(=O)N[C@@H](CC(=O)c2ccccc2N)C(=O)O[C@@H]1C | 2 µg/mL (≈ 1.24 µM) | 2 µg/mL | 2 µg/mL | 8 µg/mL
5 | CCCCCCCCCC(=O)N[C@@H](Cc1cccc(OC)c1)C(=O)N[C@@H](CC(N)=O)C(=O)N[C@@H](CC(=O)O)C(=O)N[C@@H]1C(=O)NCC(=O)N[C@@H](CCCN)C(=O)N[C@@H](CC(=O)O)C(=O)N[C@H](C)C(=O)N[C@@H](CC(=O)O)C(=O)NCC(=O)N[C@H](CO)C(=O)N[C@@H]([C@@H](C)CC(=O)O)C(=O)N[C@@H](CC(=O)c2ccccc2N)C(=O)O[C@@H]1C | 2 µg/mL (≈ 1.24 µM) | 2 µg/mL | 4 µg/mL | 4 µg/mL
6 | CCCCCCCCCC(=O)N[C@@H](Cc1csc2ccccc12)C(=O)N[C@@H](CC(N)=O)C(=O)N[C@@H](CC(=O)O)C(=O)N[C@@H]1C(=O)NCC(=O)N[C@@H](CCCN)C(=O)N[C@@H](CC(=O)O)C(=O)N[C@H](C)C(=O)N[C@@H](CC(=O)O)C(=O)NCC(=O)N[C@H](CO)C(=O)N[C@@H]([C@@H](C)CC(=O)O)C(=O)N[C@@H](CC(=O)c2ccccc2N)C(=O)O[C@@H]1C | 2 µg/mL (≈ 1.22 µM) | 8 µg/mL | 16 µg/mL | 4 µg/mL
7 | CCCCCCCCCC(=O)N[C@@H](Cc1ccc(OC)c(OC)c1)C(=O)N[C@@H](CC(N)=O)C(=O)N[C@@H](CC(=O)O)C(=O)N[C@@H]1C(=O)NCC(=O)N[C@@H](CCCN)C(=O)N[C@@H](CC(=O)O)C(=O)N[C@H](C)C(=O)N[C@@H](CC(=O)O)C(=O)NCC(=O)N[C@H](CO)C(=O)N[C@@H]([C@@H](C)CC(=O)O)C(=O)N[C@@H](CC(=O)c2ccccc2N)C(=O)O[C@@H]1C | 16 µg/mL (≈ 9.75 µM) | 16 µg/mL | 16 µg/mL | 32 µg/mL
8 | CCCCCCCCCC(=O)N[C@@H](COc1ccccc1)C(=O)N[C@@H](CC(N)=O)C(=O)N[C@@H](CC(=O)O)C(=O)N[C@@H]1C(=O)NCC(=O)N[C@@H](CCCN)C(=O)N[C@@H](CC(=O)O)C(=O)N[C@H](C)C(=O)N[C@@H](CC(=O)O)C(=O)NCC(=O)N[C@H](CO)C(=O)N[C@@H]([C@@H](C)CC(=O)O)C(=O)N[C@@H](CC(=O)c2ccccc2N)C(=O)O[C@@H]1C | 4 µg/mL (≈ 2.5 µM) | 32 µg/mL | > 32 µg/mL | 32 µg/mL
9 | CCCCCCCCCC(=O)N[C@@H](Cc1ccc(OC)cc1OC)C(=O)N[C@@H](CC(N)=O)C(=O)N[C@@H](CC(=O)O)C(=O)N[C@@H]1C(=O)NCC(=O)N[C@@H](CCCN)C(=O)N[C@@H](CC(=O)O)C(=O)N[C@H](C)C(=O)N[C@@H](CC(=O)O)C(=O)NCC(=O)N[C@H](CO)C(=O)N[C@@H]([C@@H](C)CC(=O)O)C(=O)N[C@@H](CC(=O)c2ccccc2N)C(=O)O[C@@H]1C | 8 µg/mL (≈ 4.87 µM) | 8 µg/mL | 8 µg/mL | 16 µg/mL
10 | CCCCCCCCCC(=O)N[C@@H](Cc1ccc(O)cc1)C(=O)N[C@@H](CC(N)=O)C(=O)N[C@@H](CC(=O)O)C(=O)N[C@@H]1C(=O)NCC(=O)N[C@@H](CCCN)C(=O)N[C@@H](CC(=O)O)C(=O)N[C@H](C)C(=O)N[C@@H](CC(=O)O)C(=O)NCC(=O)N[C@H](CO)C(=O)N[C@@H]([C@@H](C)CC(=O)O)C(=O)N[C@@H](CC(=O)c2ccccc2N)C(=O)O[C@@H]1C | > 32 µg/mL | > 32 µg/mL | > 32 µg/mL | > 32 µg/mL
11 | CCCCCCCCCC(=O)N[C@@H](Cc1c[nH]c2ccc(OC)cc12)C(=O)N[C@@H](CC(N)=O)C(=O)N[C@@H](CC(=O)O)C(=O)N[C@@H]1C(=O)NCC(=O)N[C@@H](CCCN)C(=O)N[C@@H](CC(=O)O)C(=O)N[C@H](C)C(=O)N[C@@H](CC(=O)O)C(=O)NCC(=O)N[C@H](CO)C(=O)N[C@@H]([C@@H](C)CC(=O)O)C(=O)N[C@@H](CC(=O)c2ccccc2N)C(=O)O[C@@H]1C | 4 µg/mL (≈ 2.42 µM) | 16 µg/mL | 32 µg/mL | 8 µg/mL
12 | CCCCCCCCCC(=O)N[C@@H](Cc1ccc(N)cc1)C(=O)N[C@@H](CC(N)=O)C(=O)N[C@@H](CC(=O)O)C(=O)N[C@@H]1C(=O)NCC(=O)N[C@@H](CCCN)C(=O)N[C@@H](CC(=O)O)C(=O)N[C@H](C)C(=O)N[C@@H](CC(=O)O)C(=O)NCC(=O)N[C@H](CO)C(=O)N[C@@H]([C@@H](C)CC(=O)O)C(=O)N[C@@H](CC(=O)c2ccccc2N)C(=O)O[C@@H]1C | 16 µg/mL (≈ 10 µM) | 16 µg/mL | 32 µg/mL | 32 µg/mL
13 | CCCCCCCCCC(=O)N[C@@H](Cc1ccc(C(F)(F)F)cc1)C(=O)N[C@@H](CC(N)=O)C(=O)N[C@@H](CC(=O)O)C(=O)N[C@@H]1C(=O)NCC(=O)N[C@@H](CCCN)C(=O)N[C@@H](CC(=O)O)C(=O)N[C@H](C)C(=O)N[C@@H](CC(=O)O)C(=O)NCC(=O)N[C@H](CO)C(=O)N[C@@H]([C@@H](C)CC(=O)O)C(=O)N[C@@H](CC(=O)c2ccccc2N)C(=O)O[C@@H]1C | 2 µg/mL (≈ 1.21 µM) | 32 µg/mL | > 32 µg/mL | 8 µg/mL

Next, values leading:

Row | MIC [1] | MIC [2] | MIC [3] | MIC [4] | Structure (SMILES)
14 | 1 µg/mL (≈ 0.627 µM) | 8 µg/mL | 32 µg/mL | 4 µg/mL | CCCCCCCCCC(=O)N[C@@H](CCc1ccccc1)C(=O)N[C@@H](CC(N)=O)C(=O)N[C@@H](CC(=O)O)C(=O)N[C@@H]1C(=O)NCC(=O)N[C@@H](CCCN)C(=O)N[C@@H](CC(=O)O)C(=O)N[C@H](C)C(=O)N[C@@H](CC(=O)O)C(=O)NCC(=O)N[C@H](CO)C(=O)N[C@@H]([C@@H](C)CC(=O)O)C(=O)N[C@@H](CC(=O)c2ccccc2N)C(=O)O[C@@H]1C
15 | 2 µg/mL (≈ 1.26 µM) | 4 µg/mL | 8 µg/mL | 4 µg/mL | CCCCCCCCCC(=O)N[C@@H](Cc1ccccc1)C(=O)N[C@@H](CC(N)=O)C(=O)N[C@@H](CC(=O)O)C(=O)N[C@@H]1C(=O)NCC(=O)N[C@@H](CCCN)C(=O)N[C@@H](CC(=O)O)C(=O)N[C@H](C)C(=O)N[C@@H](CC(=O)O)C(=O)NCC(=O)N[C@H](CO)C(=O)N[C@@H]([C@@H](C)CC(=O)O)C(=O)N[C@@H](CC(=O)c2ccccc2N)C(=O)O[C@@H]1C
16 | 2 µg/mL (≈ 1.23 µM) | 2 µg/mL | 2 µg/mL | 4 µg/mL | CCCCCCCCCC(=O)N[C@@H](Cc1ccc(N(C)C)cc1)C(=O)N[C@@H](CC(N)=O)C(=O)N[C@@H](CC(=O)O)C(=O)N[C@@H]1C(=O)NCC(=O)N[C@@H](CCCN)C(=O)N[C@@H](CC(=O)O)C(=O)N[C@H](C)C(=O)N[C@@H](CC(=O)O)C(=O)NCC(=O)N[C@H](CO)C(=O)N[C@@H]([C@@H](C)CC(=O)O)C(=O)N[C@@H](CC(=O)c2ccccc2N)C(=O)O[C@@H]1C
17 | 1 µg/mL (≈ 0.627 µM) | 2 µg/mL | 8 µg/mL | 8 µg/mL | CCCCCCCCCC(=O)N[C@@H](Cc1ccc(C)cc1)C(=O)N[C@@H](CC(N)=O)C(=O)N[C@@H](CC(=O)O)C(=O)N[C@@H]1C(=O)NCC(=O)N[C@@H](CCCN)C(=O)N[C@@H](CC(=O)O)C(=O)N[C@H](C)C(=O)N[C@@H](CC(=O)O)C(=O)NCC(=O)N[C@H](CO)C(=O)N[C@@H]([C@@H](C)CC(=O)O)C(=O)N[C@@H](CC(=O)c2ccccc2N)C(=O)O[C@@H]1C
18 | 0.25 µg/mL (≈ 0.153 µM) | 16 µg/mL | > 32 µg/mL | 1 µg/mL | CCCCCCCCCC(=O)N[C@@H](Cc1c[nH]c2ccc(F)cc12)C(=O)N[C@@H](CC(N)=O)C(=O)N[C@@H](CC(=O)O)C(=O)N[C@@H]1C(=O)NCC(=O)N[C@@H](CCCN)C(=O)N[C@@H](CC(=O)O)C(=O)N[C@H](C)C(=O)N[C@@H](CC(=O)O)C(=O)NCC(=O)N[C@H](CO)C(=O)N[C@@H]([C@@H](C)CC(=O)O)C(=O)N[C@@H](CC(=O)c2ccccc2N)C(=O)O[C@@H]1C
19 | 1 µg/mL (≈ 0.606 µM) | 4 µg/mL | 4 µg/mL | 32 µg/mL | CCCCCCCCCC(=O)N[C@@H](Cc1ccc(N2CCCC2)cc1)C(=O)N[C@@H](CC(N)=O)C(=O)N[C@@H](CC(=O)O)C(=O)N[C@@H]1C(=O)NCC(=O)N[C@@H](CCCN)C(=O)N[C@@H](CC(=O)O)C(=O)N[C@H](C)C(=O)N[C@@H](CC(=O)O)C(=O)NCC(=O)N[C@H](CO)C(=O)N[C@@H]([C@@H](C)CC(=O)O)C(=O)N[C@@H](CC(=O)c2ccccc2N)C(=O)O[C@@H]1C
20 | 2 µg/mL (≈ 1.25 µM) | 8 µg/mL | 16 µg/mL | 8 µg/mL | CCCCCCCCCC(=O)N[C@@H](Cc1ccc(F)cc1)C(=O)N[C@@H](CC(N)=O)C(=O)N[C@@H](CC(=O)O)C(=O)N[C@@H]1C(=O)NCC(=O)N[C@@H](CCCN)C(=O)N[C@@H](CC(=O)O)C(=O)N[C@H](C)C(=O)N[C@@H](CC(=O)O)C(=O)NCC(=O)N[C@H](CO)C(=O)N[C@@H]([C@@H](C)CC(=O)O)C(=O)N[C@@H](CC(=O)c2ccccc2N)C(=O)O[C@@H]1C
